Results on 14 molecules are retold here after patent US8012481B2, “Composition and method for inducing or restoring locomotor functions in an animal” (Universite Laval, priority 2004, dated 2011).

Where only a bound is given, the exact number is not on record here.

Type in all cases: in vivo, mouse
Assay [1] relates to paraplegic mice (lumbar spinal cord circuitry for hindlimb locomotion). The assay can be described thus: Hindlimb movement generation (LM/NLM) on a motor-driven treadmill in complete spinal cord transected mice. The conditions noted are these: for induction of LM: some NLM were found; for mice in which a mixture of LM and NLM was induced: 7 animals/group.
In assay [2] the test system is paraplegic mice. The assay can be described thus: Hindlimb movement generation in paraplegic mice, air-stepping and/or treadmill not separated; BBB and AOB scales. As to conditions: for induction of LM / induction of NLM: increasing doses, air-stepping and treadmill conditions, FIG. 13; for effect of 5-HT1A antagonist pretreatment on 8-OH-DPAT-induced LM: antagonist 2 mg/kg. How it is done: Animals and Treatment. We tested one hundred and ninety five (n=195) male and female adult CD1 and C57BL/6 mice weighing 30-40 grams prior to the study (Charles River Laboratory, St-Constant, Canada). […] Animals were spinalized 7 days prior to testing (exceptionally tested sometimes at 15 days post-spinalization, e.g., FIG. 17). A complete transection of the spinal cord was performed intervertebrally between the 9th and 10th vertebrae in isoflurane (2.5%) anesthetized animals. Complete spinalization was confirmed by 1) full paralysis of the hindlimbs, 2) post-mortem examination of the spinal cord microscopically and, in some cases, 3) staining transverse or sagittal spinal cord sections with luxol fast blue/cresyl violet for myelinated axons and nissl substance respectively. All mice received pre-operative care and post-operative care including lactate-Ringer's solution (2 ml/day, s.c.), analgesic (buprenorphine 0.2 mg/kg/day, s.c.) and antibiotic (baytril 5 mg/kg/day, s.c.). Bladders were emptied manually and animals were left in their cage without other interventions with food and water ad libitum until testing. Mice received a single injection (i.p.) of either 8-OHDPAT (5-HT1A/7); 5-CT (5-HT1A/7 agonist); buspirone (5-HT1A agonist); TFMPP (5-HT1B/2C agonist); quipazine (5-HT2B/2C); m-CPP (5-HT2B/2C agonist); SR-57227A (5-HT3) one week post-spinalization. […] The contribution of spinal 5-HT4/5/6 receptor activation to hindlimb movement generation in spinalized animals were not tested either because selective ligands are not available or because no significant expression levels have been found for these receptor subtypes in the mammalian spinal cord (see Schmidt and Jordan, Brain Res Bull 2000).
Hindlimb movement recording. Hindlimb movements were filmed (digital video camera 3 Com Home-connect, 30 frames/sec) immediately prior to injection and at fixed delays after injection in animals either suspended (air-stepping condition) or placed on a treadmill running at a speed of 8-10 cm/sec (treadmill condition). A harness was put around the torso and the waist either to completely suspend animals (air-stepping) or to maintain them in front of the camera on the treadmill (not weight support was provided). Animals were not stimulated otherwise. Locomotor-like movements were defined as rhythmic flexions and extensions occurring in both hindlimbs alternatively. Body weight support and plantar foot placement were facultative and therefore not required to be counted as locomotor-like (LM). In turn, non-locomotor movements (NLM) were defined as non-bilaterally alternating hindlimb movements most often including spasms, kicks, uncoordinated or unilateral movements, etc. In some cases, qualitative assessment methods were used to evaluate the level of induced hindlimb movements. The BBB locomotor scale (Basso, Bresnahan and Beattie, Exp Neurol 1996) and the AOB motor scale (Antri, Orsal and Barthe, Eur J Neurosci 2002) were also occasionally used.

Assay [3] deals with paraplegic mice (lumbar spinal cord circuitry for hindlimb locomotion). The assay can be described thus: Hindlimb movement generation (LM/NLM) on a motor-driven treadmill in complete spinal cord transected mice. How it is done: (§1) Animals and Treatment Thirty-two (n=32) male or female adult CD1 mice weighing 30-40 grams were tested prior to the study (Charles River Laboratory, St-Constant, Canada). The experiment was conducted in a Canadian Council on Animal Care approved facility in accordance with the CCAC Guide for Care and Use of Experimental Animals. Animals were spinalized 7-9 days prior to testing. A complete transection of the spinal cord was performed intervertebrally between the 9th and 10th vertebrae in isoflurane (2.5%) anesthetized animals. Complete spinalization was confirmed by 1) full paralysis of the hindlimbs, 2) post-mortem examination of the spinal cord microscopically and, in some cases, 3) staining transverse or sagittal spinal cord sections with luxol fast blue/cresyl violet for myelinated axons and nissl substance respectively. All mice received pre-operative care and post-operative care including lactate-Ringer's solution (2 ml/day, s.c.), analgesic (buprenorphine 0.2 mg/kg/day, s.c.) and antibiotic (baytril 5 mg/kg/day, s.c.). Bladders were emptied manually and animals were left in their cage without other interventions with food and water ad libitum until testing.
Hindlimb movement recording. Hindlimb movements were filmed (digital video camera 3 Com Home-connect, 30 frames/sec), 1) immediately prior to injection and, 2) at fixed delays after injection in animals placed on a treadmill running at a speed of 8-10 cm/sec (treadmill condition). A harness was put around the torso and the waist to maintain them in front of the camera on the treadmill (not weight support was provided). Animals were not stimulated otherwise. Hindlimb movements were assessed either as locomotor-like movements (LM) or non-locomotor movements (NLM) Locomotor-like movements were defined as rhythmic flexions and extensions occurring in both hindlimbs alternatively. Body weight support and plantar foot placement were facultative and therefore not required to be counted as locomotor-like (LM). In turn, non-locomotor movements (NLM) were defined as non-bilaterally alternating hindlimb movements most often including spasms, kicks, uncoordinated or unilateral movements, etc. Levels of weight supported movements and of plantar foot placements were assessed as either none, occasional, or frequent.
as §1, with “and Treatment. Twenty-nine (n=29)” for “and Treatment Thirty-two (n=32)”, “male and” for “male or”, “grams” for “grams were tested”, “spinalized 7” for “spinalized 7-9”, “(baytril” for “(baytril 5”
Hindlimb movement recording, Hindlimb movements were filmed (digital video camera 3 Com Home-connect, 30 frames/sec) immediately prior to injection and at fixed delays after injection in animals suspended (air-stepping condition) or placed on a treadmill running at a speed of 8-10 cm/sec (treadmill condition). A harness was put around the torso and the waist either to completely suspend animals (air-stepping) or to maintain them in front of the camera on the treadmill (not weight support was provided).

The test system of assay [4] is paraplegic mice. The assay can be described thus: Hindlimb movement generation in the air-stepping condition (suspended) in spinal cord transected mice. An excerpt: Animals and Treatment. Twenty-nine (n=29) male and female adult CD1 mice weighing 30-40 grams prior to the study (Charles River Laboratory, St-Constant, Canada). […] Animals were spinalized 7 days prior to testing. […] Bladders were emptied manually and animals were left in their cage without other interventions with food and water ad libitum until testing. […] A harness was put around the torso and the waist either to completely suspend animals (air-stepping) or to maintain them in front of the camera on the treadmill (not weight support was provided). Animals were not stimulated otherwise. Animals and Treatment. […] Bladders were emptied manually and animals were left in their cage without other interventions with food and water ad libitum until testing. Mice received a single injection (i.p.) of either 8-OHDPAT (5-HT1A/7); 5-CT (5-HT1A/7 agonist); buspirone (5-HT1A agonist); TFMPP (5-HT1B/2C agonist); quipazine (5-HT2B/2C); m-CPP (5-HT2B/2C agonist); SR-57227A (5-HT3) one week post-spinalization. […] Hindlimb movement recording. […] A harness was put around the torso and the waist either to completely suspend animals (air-stepping) or to maintain them in front of the camera on the treadmill (not weight support was provided). Animals were not stimulated otherwise. Locomotor-like movements were defined as rhythmic flexions and extensions occurring in both hindlimbs alternatively. Body weight support and plantar foot placement were facultative and therefore not required to be counted as locomotor-like (LM). In turn, non-locomotor movements (NLM) were defined as non-bilaterally alternating hindlimb movements most often including spasms, kicks, uncoordinated or unilateral movements, etc. In some cases, qualitative assessment methods were used to evaluate the level of induced hindlimb movements. The BBB locomotor scale (Basso, Bresnahan and Beattie, Exp Neurol 1996) and the AOB motor […], Orsal and Barthe, Eur J Neurosci 2002) were also occasionally used.

The mark [5] stands for this setting: single injection 0.5-2.5 mg/kg, i.p., CD1 mice 6-7 days post-spinalization, treadmill.
The mark [6] stands for this setting: L-DOPA 40-100 mg/kg, treadmill, n=29.
[7] abbreviates: i.p. prior to 8-OH-DPAT, both strains.

Take `CCCN(CCC)C1CCc2ccc(O)cc2C1` (stereo not drawn) [7-OH-DPAT]: in assay [1] (setting [5]), the “induction of LM” value is given as “did not induce LM”.
Take `CCCN(CCC)C1CCc2cccc(O)c2C1` (stereo not drawn) [8-OH-DPAT, 8-hydroxy-2-(di-n-propylamino)tetralin]: in assay [2] (8-OH-DPAT 1 mg/kg, i.p., CD1 and C57BI/6 mice seven days after transection), the “induction of hindlimb movements” value is “induced hindlimb alternated movements in most mice”. For the same molecule, in assay [2] (8-OH-DPAT 1 mg/kg, i.p., seven days after transection), the “weight supported steps or plantar foot placements” value is listed as “not found”. The “doses at which all-or-none-like effects (LM and NLM) start” value in assay [1] (8-OH-DPAT i.p., spinal mice on a treadmill (FIG. 18), n=28) is reported as at least 1 mg/kg.
For `NC[C@@H]1O[C@H](c2ccccc2)Cc2c1ccc(O)c2O` [A-68930], the “mice in which a mixture of LM and NLM was induced” value (shortened to “mice in which a mixture”) in assay [1] (setting [5]) amounted to 28%.
Regarding `N[C@@H](Cc1ccc(O)c(O)c1)C(=O)O` [L-DOPA, L-(−)-2-amino-3-(3,4-dihydroxyphenyl)propionic acid], the “weight bearing locomotor capabilities” value in assay [3] (L-DOPA 40-100 mg/kg, treadmill, all cases) is on record as “no weight bearing locomotor capabilities”. In addition, in assay [3] (setting [6]), the “LM per min (average)” value is 6.1±1.3 per min. Also, the “NLM per min (average)” value in assay [3] (setting [6]) turned out to be 11.2±1.8 per min. For the same molecule, in assay [3] (L-DOPA i.p. with benserazide (1:4), CD1 mice 7 days post-spinalization, treadmill 8-10 cm/sec), the “uneffective doses on treadmill” value is below 40 mg/kg. Further, the “time following injection at which hindlimb movements began” value in assay [3] (one mouse (FIG. 6): 40 mg/kg L-DOPA, treadmill) came out at 20 min. The “hindlimb movement generation in air-stepping” value in assay [4] (40 mg/kg L-DOPA, 1-week paraplegic mouse, 20 min post-injection (no effect either 30 or 45 min later)) is recorded as “No hindlimb movements”; in assay [4] (80 mg/kg L-DOPA, 28 min after injection), “No movements”; in assay [4] (30-100 mg/kg L-DOPA i.p. with benserazide (1:4), CD1 mice 7 days post-spinalization) it was “did not induce hindlimb movements”.
As for `Cc1cccc(C(=O)NCN2CCN(c3ccccc3C#N)CC2)c1` [PD168077], in assay [1] (setting [5]), the “induction of LM” value is “did not induce LM”.
As for `CC1CCN(CC[C@H]2CCCN2S(=O)(=O)c2cccc(O)c2)CC1` [SB269970], in assay [2] (SB269970 2-15 mg/kg, i.p. prior to 8-OH-DPAT, both strains), the “effect of 5-HT7 antagonist pretreatment on 8-OH-DPAT-induced movement frequencies, amplitudes and angular excursions” value was “importantly reduced”.
`Oc1cc2c(c(Cl)c1O)CCNCC2c1ccccc1` (stereo not drawn) [SKF-81297]: in assay [1] (setting [5]), the “ACOS (averaged combined score = NLM+[LM×2])” value was above 8; the “mice in which a mixture” value turned out to be 71%.
For the molecule `Cl.NC1CCN(c2cccc(Cl)n2)CC1` [SR-57227A], in assay [3] (SR-57227A, treadmill, in some animals), the “locomotor-like movements per min on a treadmill” value is “approx. 2.5 per min”. For the same molecule, the “type of hindlimb movements induced” value in assay [2] (SR-57227A i.p., air-stepping, open-field or treadmill) is given as “can induce only NLM”. Also, the “scores with the BBB and Antri motor scales” value in assay [2] (SR-57227A, FIG. 16) is given as “very low scores”. Also, the “score on Basso, Beattie and Bresnahan (1996) locomotor scale” value in assay [2] (SR-57227A, FIG. 16A) is listed as “Non-significant scores”.
`FC(F)(F)c1cccc(N2CCNCC2)c1` [TFMPP]: in assay [2] (i.p.), the “induction of LM” value is “not to induce LM” and the “induction of NLM” value is reported as “induced only NLM”.
`COc1ccccc1N1CCN(CC(C(=O)NC(C)(C)C)c2ccccc2)CC1` (stereo not drawn) [WAY100,135]: the “effect of 5-HT1A antagonist pretreatment on 8-OH-DPAT-induced LM” value in assay [2] (setting [7]) is listed as “significantly reduced”.
The same measure, in the same setting: in the case of `COc1ccccc1N1CCN(CCN(C(=O)C2CCCCC2)c2ccccn2)CC1` [WAY100,635] it was “significantly reduced”.
In the case of `CN1CCc2cccc3c2[C@H]1Cc1ccc(O)c(O)c1-3` [apomorphine, (R)-5,6,6a,7-tetrahydro-6-methyl-4H-dibenzo-[de,g]quinoline-10,11-diol], the “mice in which a mixture” value in assay [1] (setting [5]) is given as 11%.
As to `Clc1cccc(N2CCNCC2)c1` [m-CPP], in assay [2] (i.p.), the “induction of LM” value is given as “not to induce LM” and the “induction of NLM” value is reported as “dose-dependent non-locomotor movements were found”.
Regarding `c1ccc2nc(N3CCNCC3)ccc2c1` [quipazine], the “doses inducing some rhythmic LM in air-stepping” value in assay [4] (quipazine i.p., air-stepping condition, FIG. 14) is reported as “above 0.8 mg/kg”. Further, in assay [4] (quipazine i.p., air-stepping, FIG. 14H), the ineffective doses entry is “below 0.8 mg/kg”. The “times less LM than 8-OH-DPAT tested in similar conditions” value in assay [2] (quipazine, FIG. 9 vs. FIG. 15) was 2-3 times. The “weight-supported stepping and plantar foot placement” value in assay [2] (quipazine, air-stepping or treadmill 8-10 cm/sec) was “No weight-supported stepping and plantar foot placement were found”. In assay [2] (quipazine, treadmill as well as air-stepping, FIG. 15), the “number of movements of each type (LM, NLM)” value is listed as 8-15.
